Data on one compound can be found in US12161643B2, “Stable formulations of SHR0302” (ARCUTIS BIOTHERAPEUTICS, INC., priority 2021, dated 2024).

Series [1] in a line: Solubility of SHR0302 in water at varying pH values in a phosphate buffer. Type of series: physicochemical. The conditions noted are these: phosphate buffer system; FIG. 1. How it is done:
The solubility of SHR0302 was determined in water at varying pH values in a phosphate buffer. FIG. 1 illustrates a plot of SHR0302 (also known as ARQ-250) concentration in μg/mL in water as a function of pH in a phosphate buffer system.

A short description of series [2]: Solubility of SHR0302 in water at varying pH values in phosphate and citrate buffer systems. The class given is physicochemical. The conditions noted are these: FIG. 2. How it is done:
The solubility of SHR0302 was determined in water at varying pH values in various buffer systems. FIG. 2 illustrates a plot of SHR0302 concentration in μg/mL in water as a function of pH in two phosphate buffer systems and a citrate buffer system.

Another series has as its target JAK1 (Homo sapiens, UniProt P23458). The conditions noted are these: cited from earlier work.

Chain of JAK1 (P23458 whole entry): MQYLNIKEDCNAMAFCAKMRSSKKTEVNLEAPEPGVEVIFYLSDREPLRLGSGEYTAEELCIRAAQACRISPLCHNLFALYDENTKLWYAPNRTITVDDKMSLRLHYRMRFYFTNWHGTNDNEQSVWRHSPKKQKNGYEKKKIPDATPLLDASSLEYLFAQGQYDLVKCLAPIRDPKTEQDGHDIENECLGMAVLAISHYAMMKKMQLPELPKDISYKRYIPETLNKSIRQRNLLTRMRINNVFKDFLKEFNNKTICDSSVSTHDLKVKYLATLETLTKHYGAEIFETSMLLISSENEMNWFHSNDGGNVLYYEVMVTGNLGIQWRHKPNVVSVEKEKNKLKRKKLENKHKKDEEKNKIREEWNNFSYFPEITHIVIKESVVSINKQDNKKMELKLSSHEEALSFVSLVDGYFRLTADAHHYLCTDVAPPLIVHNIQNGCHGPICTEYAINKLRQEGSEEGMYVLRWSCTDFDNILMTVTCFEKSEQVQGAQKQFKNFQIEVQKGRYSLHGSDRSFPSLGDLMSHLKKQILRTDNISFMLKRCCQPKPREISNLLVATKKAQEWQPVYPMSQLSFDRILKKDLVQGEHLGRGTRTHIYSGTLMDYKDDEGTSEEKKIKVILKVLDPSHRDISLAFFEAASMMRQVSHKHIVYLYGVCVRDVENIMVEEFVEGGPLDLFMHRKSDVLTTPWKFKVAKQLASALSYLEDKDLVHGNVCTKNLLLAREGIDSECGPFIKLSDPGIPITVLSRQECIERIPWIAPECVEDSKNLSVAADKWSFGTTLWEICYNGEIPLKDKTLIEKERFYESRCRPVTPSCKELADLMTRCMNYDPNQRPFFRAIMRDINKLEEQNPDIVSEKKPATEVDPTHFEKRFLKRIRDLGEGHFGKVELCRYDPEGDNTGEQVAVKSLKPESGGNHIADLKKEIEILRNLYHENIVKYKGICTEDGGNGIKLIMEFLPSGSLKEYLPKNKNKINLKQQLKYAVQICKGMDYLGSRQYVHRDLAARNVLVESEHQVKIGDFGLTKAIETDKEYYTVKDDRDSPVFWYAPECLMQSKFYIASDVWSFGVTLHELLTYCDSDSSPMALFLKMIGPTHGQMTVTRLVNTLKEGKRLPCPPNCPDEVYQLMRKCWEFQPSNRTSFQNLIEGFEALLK

For the compound `COc1nsc(NC(=O)N2C[C@H]3C[C@H](N(C)c4ncnc5[nH]ccc45)C[C@H]3C2)n1` [SHR0302, (3aR,5S,6aS)—N-(3-methoxyl-1,2,4-thiadiazol-5-yl)-5-(methyl(7H-pyrrolo[2,3-d]pyrimidin-4-yl)amino)hexahydrocyclopenta[c]pyrrole-2(1H)-carboxamide], the “solubility in water as a function of pH” value in series [1] and in series [2] was “decreases as pH levels increase” each time. In addition, at JAK1 (JAK1 over JAK2), the “selectivity for JAK1 over JAK2” value is “high selectively for JAK1 over JAK2”. The “inhibition of JAK1” value on JAK1 is reported as “potent”.
